Measured values published in US4216324A, “1-Difluoromethyl-6,7-methylenedioxy-1,4-dihyd ro-4-oxo-3-quinolinecarboxylic acid” (E. I. Du Pont de Nemours and Company, priority 1978, dated 1980).
≈ marks a conversion by molar mass, not a printed value. Read-outs that look alike come from different tables or passages of the source.

How the values were obtained:
[1] = test system: Sal typhosa; test: In vitro minimum inhibitory concentration (MIC), tube dilution test; assay type: cell-based; details: read-out: Minimal Inhibitory Test Conens. (MIC)
Description: A. In vitro: mimimum inhibitory concentration (MIC)
The compound was tested in a standard bacteriological tube dilution test for MIC for a variety of bacteria. Stock cultures of the bacteria listed in Table 1 were grown in bacterial culture media at 37° C. overnight and diluted in culture tubes to a previously determined concentration proper for the test. The compound was added to result in final concentrations of 10, 2, 0.4 and 0.08 μg/ml. These were incubated for 18 hours at 37° C. and then observed to determine if growth of bacteria had occurred. The lowest concentration of the compound that inhibited bacterial growth in the MIC.
*brain-heart infusion broth, 20hour incubation at 37° C.

[2] = test system: Escherichia coli; test: Escherichia coli (mouse infections); assay type: in vivo; details: female white mice, oral, at infection and again 4 hours after, 72 hours, Reed-Muench, read-out: ED50 (dose effective to save 50% of the mice)
Description: 1. Escherichia coli (mouse infections)
(§1) Female white mice weighing approximately 20 grams were infected by injecting a sufficient number of E. coli cells intraperitoneally to cause 85-100% fatalities within 3 days after infection. Groups of 12 such infected mice were dosed orally by intubation with the compound suspended in water to equal 40, 20, 10 and 5 mg/kg at the time of infection and again 4 hours after infection time. […] The dose effective to save 50% of the mice (ED50) was calculated by the Reed-Muench method (Reed, L. J. Muench, H. A Single Method of Estimating 50% Endpoints, Am. J. Hygiene 27, p. 493-497 (1938)).

[3] = test system: Staphylococcus aureus; test: Staphylococcus aureus (mouse infections); assay type: in vivo; details: female white mice, oral, at infection and again 4 hours after, 72 hours, Reed-Muench, read-out: ED50 (dose effective to save 50% of the mice)
Description: as §1
2. Staphylococcus aureus (mouse infections)
The same methods as the previous test were used, except the compound concentrations were 400, 200, 100 and 50 mg/kg. The ED50 's appear in Table 2.

[4] = in vivo; details: mouse, in vivo, po; for TD50: doses given in mg./kg
Description: (§2) 17- to 24-hour fasted female white mice, 16-20 g. each, or rats, 70-90 g. each were dosed orally with test drug (or standard) at 0, 4, 12, 36, 108 or 324 mg./kg.
(§3) Ataxia--The mouse or rat was placed upright on the bench top facing away from the observer. Motor incoordination manifested by abnormal gait or lack of precision during purposive movements constituted ataxia.
(§4) Vertical Bar--The mouse or rat was swung by the tail with head pointing down to a 0.5" diameter (1" diameter for rats), 30.5 cm long vertical rod covered with adhesive tape. Inability to grip the rod with the front paws, sliding or failure to move after being prodded constituted vertical bar loss.
(§5) Body Temperature--The rectal temperatures of the mice and rats were taken using a KC-1 thermocouple probe.
(§6) Excitement and Irritability--Increased spontaneous motor activity, running and jumping prior to handling were recorded as excitement. Upon handling, jumping, jerking, biting and squeaking were recorded as irritability.
(§7) Anorexia--At the end of the 0.5 hour testing period, each mouse was transferred to an individual, clear, Lucite® compartment (13.3 cm×12.7 cm×12.7 cm) with a 0.64 cm×0.64 cm wire mesh floor. Inside each compartment there was a section of a black Lucite® bar [13 cm×1.2 cm×1.2 cm) with ten spot depressions (0.8 cm diameter) each containing 0.05 ml. of 50% sweetened condensed milk. 30 Minutes later the number of milk spots consumed was counted. 5 Mice per drug dose can drink a maximum of 50 spots (2.5 ml. of milk). 15 or fewer spots consumed by 5 mice constituted anorexia.

[5] = test system: mice; test: General pharmacology screen in mice; details: summary in words of Tables 3 and 4 (mice and rats)
Description: as §2, §3, §4, §5, §6, §7

[6] = test system: bacteria; details: Ronald et al., New England Journal of Medicine, 1966; cited from earlier work
[7] = cited from earlier work; for undesirable side effects: Cox, Delaware Medical Journal, 1970
[8] = ED50 Anoroxia, 15 or fewer milk spots consumed by 5 mice
[9] = ED50 Hypertherm., rectal temperature
[10] = ED50 Hypotherm., rectal temperature
[11] = ED50 Vert. Bar, vertical bar loss

| SMILES | MIC ([1]; 20 h) | ED50 [2] | ED50 [3] | LD50 at 24 h [4] | TD50 [4, 8] | TD50 ([4]; ED50 Ataxia) | TD50 ([4]; ED50 Excitation) | TD50 [4, 9] | TD50 [4, 10] | TD50 ([4]; ED50 Irritability) | TD50 [4, 11] | untoward effects in the general pharmacology screen [5] | bacterial resistance [6] | undesirable side effects [7] | MIC ([1]; Sal typhosa (02D), brain-heart infusion broth, 20hour incubation at 37° C.) | toxicity, use in therapy of urinary tract infections ([7]; Kershaw and Leigh, 1975) |
| --- | --- | --- | --- | --- | --- | --- | --- | --- | --- | --- | --- | --- | --- | --- | --- | --- |
| O=C(O)c1cn(C(F)F)c2cc3c(cc2c1=O)OCO3 [DFMQ, 1-difluoromethyl-6,7-methylenedioxy-1,4-dihydro-4-oxo-3-quinolinecarboxylic acid] | < 0.08 µg/mL | 9.9 mg/kg | 149 mg/kg | > 450 mg/kg | > 450 mg/kg | > 450 mg/kg | > 450 mg/kg | > 450 mg/kg | > 450 mg/kg | > 450 mg/kg | > 450 mg/kg | – | – | – | – | – |
| CCn1cc(C(=O)O)c(=O)c2ccc(C)nc21 [Nalidixic Acid, nalidixic acid] | – | – | – | > 450 mg/kg | 180 mg/kg | 150 mg/kg | > 450 mg/kg | > 450 mg/kg | 187 mg/kg | > 450 mg/kg | 187 mg/kg | produced some ataxia, and anorexia | tendency to rapidly evoke bacterial resistance | a relatively high incidence of side effects | – | – |
| CCn1cc(C(=O)O)c(=O)c2cc3c(cc21)OCO3 [Oxolinic Acid, oxolinic acid] | – | – | – | > 450 mg/kg | 21 mg/kg | 3.2 mg/kg | 8 mg/kg | > 450 mg/kg | > 450 mg/kg | 36 mg/kg | 4.5 mg/kg | produced ataxia, anorexia, excitation, and irritability | – | a high incidence of undesirable side effects | 0.4 µg/mL (≈ 1.53 µM) | because of toxicity, "it should not be used as a first-line drug in the therapy of urinary tract infections." |
